# Results published in BindingDB's records for doi:10.1016/j.bmc.2018.07.019 (The Scripps Research Institute, 2018).
# Assay: Inhibition of ATG-Myc (unknown origin) expressed in CEF cells assessed as inhibition of microtumor formation
row,SMILES,IC50 [µM]
1,COc1ccc(-c2cc(-c3ccc(C(N)=O)cc3)nc(-c3ccccc3)n2)cc1,> 100
2,N#Cc1ccc(-c2cc(-c3ccc(C(N)=O)cc3)nc(-c3cc[n+]([O-])cc3)n2)cc1,> 100
3,Cn1ccnc1-c1cc(-c2ccc(C(N)=O)cc2)cc(-c2ccc(C#N)cc2)n1,40
4,N#Cc1ccc(-c2cc(-c3ccc(C(N)=O)cc3)cc(-c3cncs3)n2)cc1,30
5,N#Cc1ccc(-c2cc(-c3ccc(C(N)=O)cc3)nc(-c3ccco3)n2)cc1,7
6,N#Cc1ccc(-c2cc(-c3ccc(C(N)=O)cc3)cc(-c3cccc(F)c3)n2)cc1,> 100
7,N#Cc1ccc(-c2cc(-c3ccc(C(=O)NN)cc3)cc(-c3ccco3)n2)cc1,> 100
8,CS(=O)(=O)NC(=O)c1ccc(-c2cc(-c3ccc(C#N)cc3)nc(-c3ccco3)c2)cc1,10
9,c1coc(-c2cc(-c3nccs3)cc(-c3ccc(-c4nccs4)cc3)n2)c1,> 100
10,Cn1nncc1-c1cc(-c2ccc(C(N)=O)cc2)cc(-c2ccc(C#N)cc2)n1,40

# Stronger by IC50, values ahead:
row,IC50 [µM],SMILES
1,5,NC(=O)c1ccc(-c2cc(-c3ccc(-c4nccs4)cc3)nc(-c3ccco3)c2)cc1
2,5,N#Cc1ccc(-c2cc(-c3ccc(C(N)=O)cc3)cc(-c3cnco3)n2)cc1
3,3,N#Cc1ccc(-c2cc(-c3ccc(C(N)=O)cc3)cc(-c3ccco3)n2)cc1
4,2.5,NC(=O)c1ccc(-c2cc(-c3ccc(-c4cnco4)cc3)nc(-c3ccco3)c2)cc1
5,2,N#Cc1ccc(-c2cc(-c3ccc(-c4nnn[nH]4)cc3)cc(-c3ccco3)n2)cc1
